# Laboratory results as given in US12509446B2, “FYN and VEGFR2 kinase inhibitors” (ROTTAPHARM BIOTECH S.R.L., priority 2019, dated 2025).
# Assays:
# CFA induced hyperalgesia = experiment: Complete Freund Adjuvant (CFA)-induced inflammatory pain in rats; assay type: in vivo, rat; conditions: intra-dermal
# [1] = Pharmacokinetics, oral route, mice; conditions: mouse, in vivo, read-out: Absolute bioavailability
# [2] = test system: bovine nasal septum cartilage; experiment: Inhibition of cartilage degradation (GAG release) induced by IL-1α in a bovine in vitro model; assay type: cell-based
# Method in brief: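 Cartilage punches (2 mm) from an 8-month-old male bovine nasal septum were cultured 48 h, then stimulated 48 h with IL-1α […] ± compound in DMEM + 0.1% BSA. Compound doses were set from 48 h rat chondrocyte toxicity. GAG in medium and papain-digested tissue was measured by DMB absorbance at 590 nm; degradation = medium GAG/total GAG × 100.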
smiles,measurement,setting,value
"Cc1ccc(NC(=O)c2cccc(C(F)(F)F)c2)cc1CCc1cc(Nc2cnccn2)[nH]n1 [Compound 3, N-(4-methyl-3-(2-(5-(pyrazin-2-ylamino)-1H-pyrazol-3-yl)ethyl)phenyl)-3-(trifluoromethyl)benzamide]",Effect on normal nociception in naïve animals,"CFA induced hyperalgesia; 3 μM (140 ng/paw), no CFA challenge",did not modify the normal nociception
same,Effect on pain behavior in CFA inflamed animals (mechanical pain threshold),CFA induced hyperalgesia; maximal concentration of 3 μM (140 ng/paw),completely reverted the pain behavior
same,bioavailability,[1],~12%
same,inhibition at 1 µM,"[2]; Bos taurus, 1 μM, read-out: Bovine cartilage degradation induced by IL-1α, % inhibitory effect at max concentration",100%
same,Inhibitory effect on the GAG release,[2]; at max concentration,95-100%
